In patent publication US20060111443A1, “Preventive therapeutic composition for muscular fatigue, pulled muscle and disease attributed thereto” (priority 2002, published 2006):

How the values were obtained:
[1] = system: healthy subjects; experiment: Analyzing test of blood components (myoglobin, lactic acid, CPK) after exercise stress; format: in vivo, human; settings: value just after exercise stress = 100%
Procedure: To 20 healthy subjects (14 males and 6 females), was given an exercise stress of 15 km running within a limited time of 2 hours. The 20 subjects who run the whole distance within the limited time were divided into 2 groups by the arrival order, that is, one group consisting of 10 subjects of odd-numbered order of arrival (8 male subjects and 2 female subjects) and the other group consisting of 10 subjects of even-numbered order of arrival (6 male subjects and 4 female subjects). To the group of odd numbers was administered tranilast (hereinafter referred to as Medicine administration group) and to the group of even numbers was not administered (hereinafter referred to as Control group). […]
In each group, bloods were collected at a time of just before, just after, 3 days and 7 days after the exercise stress. And, blood components considered relevant to muscular fatigue and muscular damage (myoglobin, lactic acid and CPK) were analyzed, and relative degrees of changes of blood concentrations which are converted into relative values to the concentrations just after the exercise stress set as 100% were calculated.

[2] = repeated administration of 300 mg a day; cited from earlier work

## COc1ccc(/C=C/C(=O)Nc2ccccc2C(=O)O)cc1OC [tranilast, N-(3,4-dimethoxycinnnamoyl)anthranilic acid]
[1]; 3 days after exercise stress, control 160% or more
  relative degree of change of blood concentration of CPK: about 110%
[1]; 7 days after exercise stress, control about 90%
  relative degree of change of blood concentration of CPK: about 60%
[2]
  time at which tranilast concentration in blood reached the maximum: 2 days
